Results taken from patent publication US10588316B2 (priority 2015, dated 2020).

Columns and labels:
[1] = tested on: Fusarium graminearum; test: microbe, parasite or virus in culture; format: cell-based
[2] = tested on: Fusarium graminearum and Fusarium asiaticum; test: organism not typed; format: cell-based; conditions: tebuconazole 0.078 μg/mL; sensitive and fungicide-resistant strains

Tebuconazole
Median Effective Concentration (EC50) for Growth Inhibition ([1]; F.g carbendazim-resistant strains): 0.101 µg/mL | Median Effective Concentration (EC50) for Growth Inhibition ([1]; F.g phenamacril-resistant strains): 0.085 µg/mL | inhibitory effect on hyphal growth [2]: ~50%
